The values that follow come from patent US10399989B2, “Pyrazolopyrimidine derivatives as BTK inhibitors for the treatment of cancer” (Loxo Oncology, Inc., priority 2016, dated 2019).

Read-outs that look alike come from different tables or passages of the source.

Assay [1] has as its target BTK^WT (Homo sapiens (Human), UniProt Q06187). In words: BTK^WT binding affinity (TR-FRET, LanthaScreen). As to the method:
BTK^WT binding affinity of each compound tested was determined using a time-resolved fluorescence resonance energy transfer (TR-FRET) methodology. 2.5 nM Recombinant BTK^WT kinase, varying concentrations of inhibitor, 2 nM LanthaScreen™ Eu anti-His Antibody and 15 nM Kinase Tracer 236 was incubated in 1× LanthaScreen™ Kinase Buffer A for 5 h. Recombinant BTK kinase and all LanthaScreen™ components were purchased from Invitrogen. Measurements were performed in a reaction volume of 30 μL using half-area 96-well assay plates. The TR-FRET signal was read on a plate reader with an excitation wavelength of 340 nm and detection wavelengths of 615 and 665 nm. Binding affinity was determined for each compound by measuring TR-FRET signal at various concentrations of compound and plotting the relative fluorescence units against the inhibitor concentration to estimate the IC50 from log [Inhibitor] vs response using the Variable Slope model in Graphpad prism from Graphpad software (SanDiego, Calif.).
(In general: Time-resolved FRET reads energy transfer from a long-lived donor to a nearby acceptor.)

Assay [2] has as its target BTK^C481S (Homo sapiens (Human), UniProt Q06187, C481S). In words: BTK^C481S binding affinity (TR-FRET, LanthaScreen). The settings on record: 5 h incubation. As to the method: BTK^C481S binding affinity of each compound tested was determined using a time-resolved fluorescence resonance energy transfer (TR-FRET) methodology. 5 nM Recombinant […] kinase, varying concentrations of inhibitor, 2 nM LanthaScreen™ Eu anti-His Antibody and 30 nM Kinase Tracer 236 was incubated in 1× LanthaScreen™ Kinase Buffer A for 5 h. Recombinant BTK^C481S kinase was purchased from SignalChem and all LanthaScreen™ components were purchased from Invitrogen. Measurements were performed in a reaction volume of 30 μL using half-area 96-well assay plates. The TR-FRET signal was read on a plate reader with an excitation wavelength of 340 nm and detection wavelengths of 615 and 665 nm. Binding affinity was determined for each compound by measuring TR-FRET signal at various concentrations of compound and plotting the relative fluorescence units against the inhibitor concentration to estimate the IC50 from log [Inhibitor] vs response using the Variable Slope model in Graphpad prism from Graphpad software (SanDiego, Calif.).

Assay [3] deals with EGFR (Homo sapiens (Human), UniProt P00533). The assay is described as follows: EGFR binding affinity (TR-FRET, LanthaScreen). The settings on record: 5 h incubation. As for the experimental part: EGFR binding affinity was determined using a time-resolved fluorescence resonance energy transfer (TR-FRET) methodology. 2.5 nM Recombinant EGFR, varying concentrations of inhibitor, 2 nM LanthaScreen™ Eu anti-GST Antibody and 3 nM Kinase Tracer 199 was incubated in 1× LanthaScreen™ Kinase Buffer A for 5 h. Recombinant EGFR and all LanthaScreen™ components were purchased from Invitrogen. Measurements were performed in a reaction volume of 30 μL using half-area 96-well assay plates. The TR-FRET signal was read on a plate reader with an excitation wavelength of 340 nm and detection wavelengths of 615 and 665 nm. Binding affinity was determined for each compound by measuring TR-FRET signal at various concentrations of compound and plotting the relative fluorescence units against the inhibitor concentration to estimate the IC50 from log [Inhibitor] vs response using the Variable Slope model in Graphpad prism from Graphpad software (SanDiego, Calif.).

Assay [4] deals with OCI-Ly10 human DLBCL cells. In words: OCI-Ly10 anti-proliferative activity (Resazurin, 72 h). As to conditions: read-out: Proliferation OCI-Ly10-IC50. It counts as cell-based. As for the experimental part:
Compounds were assayed for effects on the growth of OCI-Ly10 human DLBCL cells that are dependent on NFκB signalling. OCI-Ly10 cells were grown in suspension in T225 flasks, centrifuged and re-suspended in 2.5% FBS containing media. Cells were then plated at 7.5×10^3 cells per well in 96-well plates in varying concentrations of compound and incubated for 72 h at 37° C. An additional plate of cells to be used as the Day 0 read was seeded without compound addition, Resazurin was added to each well, incubated for 5 h and the fluorescence measured at 590 nm. After 72 h of compound treatment, Resazurin was added to each well of the compound treated plates, incubated for 5 h and the fluorescence measured at 590 nm. The IC50 was then calculated by subtracting the average Day 0 value from each well value from the treated plates, each treatment was then calculated as a percentage of the DMSO control and the percentages plotted against the inhibitor concentration to estimate the IC50 from log [Inhibitor] vs response using the Variable Slope model in Graphpad prism from Graphpad software (SanDiego, Calif.).

Setting [5] is: TR-FRET binding, 5 h incubation, read-out: BTK^WT IC50.
The mark [6] stands for this setting: Table 6, numeric values, read-out: BTK Binding IC50.

BTK^C481S, sequence (Q06187 whole entry C481S): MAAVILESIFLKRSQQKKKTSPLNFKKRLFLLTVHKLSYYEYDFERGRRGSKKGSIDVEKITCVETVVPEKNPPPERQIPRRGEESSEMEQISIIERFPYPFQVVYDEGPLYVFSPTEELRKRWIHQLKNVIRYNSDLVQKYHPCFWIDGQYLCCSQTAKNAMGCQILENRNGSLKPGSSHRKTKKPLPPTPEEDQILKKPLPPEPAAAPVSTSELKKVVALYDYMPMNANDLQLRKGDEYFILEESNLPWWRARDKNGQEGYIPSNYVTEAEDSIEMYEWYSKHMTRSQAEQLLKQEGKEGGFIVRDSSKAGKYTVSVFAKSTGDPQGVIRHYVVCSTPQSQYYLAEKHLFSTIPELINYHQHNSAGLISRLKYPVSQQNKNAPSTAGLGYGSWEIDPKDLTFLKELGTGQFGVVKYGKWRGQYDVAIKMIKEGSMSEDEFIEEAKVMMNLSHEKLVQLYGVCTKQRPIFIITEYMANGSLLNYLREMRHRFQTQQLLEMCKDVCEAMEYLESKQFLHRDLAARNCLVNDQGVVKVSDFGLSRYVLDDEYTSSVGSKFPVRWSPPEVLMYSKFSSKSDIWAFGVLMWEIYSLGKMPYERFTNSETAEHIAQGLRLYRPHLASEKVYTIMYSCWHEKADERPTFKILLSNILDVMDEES
BTK^WT, sequence (Q06187 whole entry): as the sequence (Q06187 whole entry C481S) above, with S481C counted along it
EGFR, sequence (P00533 25-1210): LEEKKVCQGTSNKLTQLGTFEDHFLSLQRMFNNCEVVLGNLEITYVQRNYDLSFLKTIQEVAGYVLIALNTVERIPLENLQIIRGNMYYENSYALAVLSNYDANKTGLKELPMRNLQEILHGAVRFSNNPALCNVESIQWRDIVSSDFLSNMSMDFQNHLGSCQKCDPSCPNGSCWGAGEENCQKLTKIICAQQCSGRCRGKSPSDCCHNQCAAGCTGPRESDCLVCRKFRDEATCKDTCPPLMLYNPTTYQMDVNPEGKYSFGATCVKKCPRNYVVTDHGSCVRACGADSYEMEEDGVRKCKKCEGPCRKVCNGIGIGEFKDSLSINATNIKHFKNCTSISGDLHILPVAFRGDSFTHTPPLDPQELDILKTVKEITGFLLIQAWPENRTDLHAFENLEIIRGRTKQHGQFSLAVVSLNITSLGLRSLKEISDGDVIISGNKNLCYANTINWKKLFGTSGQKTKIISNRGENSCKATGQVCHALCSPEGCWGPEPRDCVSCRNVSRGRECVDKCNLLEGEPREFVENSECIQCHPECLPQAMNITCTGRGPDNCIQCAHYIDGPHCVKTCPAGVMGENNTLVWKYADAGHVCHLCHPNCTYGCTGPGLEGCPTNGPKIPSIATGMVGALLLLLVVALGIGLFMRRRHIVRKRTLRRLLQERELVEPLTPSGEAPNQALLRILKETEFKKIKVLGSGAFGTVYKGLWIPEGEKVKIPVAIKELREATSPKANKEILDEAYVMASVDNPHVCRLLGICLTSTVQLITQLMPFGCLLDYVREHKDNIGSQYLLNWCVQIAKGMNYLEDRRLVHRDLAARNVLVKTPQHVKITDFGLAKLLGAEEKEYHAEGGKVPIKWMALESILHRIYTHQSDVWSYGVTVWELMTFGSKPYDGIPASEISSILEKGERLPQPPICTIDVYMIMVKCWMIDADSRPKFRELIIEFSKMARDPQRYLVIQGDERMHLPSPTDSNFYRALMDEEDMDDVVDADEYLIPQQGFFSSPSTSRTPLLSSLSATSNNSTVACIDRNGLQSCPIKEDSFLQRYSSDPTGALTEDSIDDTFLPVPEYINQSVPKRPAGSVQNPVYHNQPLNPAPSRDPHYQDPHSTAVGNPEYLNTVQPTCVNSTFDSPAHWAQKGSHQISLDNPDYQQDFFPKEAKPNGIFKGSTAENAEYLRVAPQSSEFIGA

Consider `CNC1CCC(n2nc(-c3ccc(CNC(=O)c4ccccc4OC)cc3)c3c(N)ncnc32)CC1` (stereo not drawn) [Example 28, N-[[4-[4-amino-1-[4-(methylamino)cyclohexyl]pyrazolo[3,4-d]pyrimidin-3-yl]phenyl]methyl]-2-methoxy-benzamide], for which the IC50 in assay [1] (setting [5]) was 10 to 100 nM; in assay [2] it was 10 to 100 nM; in assay [3], 100 to 1000 nM; in assay [4] (Homo sapiens, OCI-Ly10, 72 h), 100 to 1000 nM.
With `CCO[C@H]1C=C[C@H](n2nc(-c3ccc(CNC(=O)c4ccccc4OC)cc3)c3c(N)ncnc32)C1` [Example 55, N-[(4-{4-amino-1-[(1R,4R)-4-ethoxycyclopent-2-en-1-yl]-1H-pyrazolo[3,4-d]pyrimidin-3-yl}phenyl)methyl]-2-methoxybenzamide], the IC50 in assay [1] (setting [5]) fell in the range of 10 to 100 nM; in assay [2], 10 to 100 nM; in assay [3] it was 1000 to 10000 nM; in assay [4] (Homo sapiens, OCI-Ly10, 72 h), 100 to 1000 nM.
As for `COc1ccccc1C(=O)NCc1ccc(-c2nn(C3CCC(=O)C3)c3ncnc(N)c23)cc1` (stereo not drawn) [Example 21, N-[[4-[4-amino-1-(3-oxocyclopentyl)pyrazolo[3,4-d]pyrimidin-3-yl]phenyl]methyl]-2-methoxy-benzamide], the IC50 in assay [1] (setting [5]) was not above 10 nM; in assay [2], not above 10 nM; in assay [3] it was 1000 to 10000 nM; in assay [4] (Homo sapiens, OCI-Ly10, 72 h), 100 to 1000 nM.
Turning to `CCOc1ccccc1C(=O)NCc1ccc(-c2nn(C3CCCC3)c3ncnc(N)c23)cc1` [Example 7, N-[[4-(4-amino-1-cyclopentyl-pyrazolo[3,4-d]pyrimidin-3-yl)phenyl]methyl]-2-ethoxy-benzamide], the IC50 is not above 10 nM in assay [1] (setting [5]); not above 10 nM in assay [2]; 1000 to 10000 nM in assay [3]; 100 to 1000 nM in assay [4] (Homo sapiens, OCI-Ly10, 72 h).
For the compound `COc1ccccc1C(=O)NCc1ccc(-c2nn([C@H]3C=C[C@@H](O)C3)c3ncnc(N)c23)cc1` [Example 47, N-[[4-[4-amino-1-[(1R,4S)-4-hydroxycyclopent-2-en-1-yl]pyrazolo[3,4-d]pyrimidin-3-yl]phenyl]methyl]-2-methoxy-benzamide], the IC50 in assay [1] (setting [5]) is not above 10 nM; in assay [2], not above 10 nM; in assay [3] it was 100 to 1000 nM; in assay [4] (Homo sapiens, OCI-Ly10, 72 h), 100 to 1000 nM.
In the case of `COc1ccccc1C(=O)NCc1ccc(-c2nn([C@H]3C=C[C@H](NC(C)=O)C3)c3ncnc(N)c23)cc1` [Example 60, N-[[4-[1-[(1R,4R)-4-acetamidocyclopent-2-en-1-yl]-4-amino-pyrazolo[3,4-d]pyrimidin-3-yl]phenyl]methyl]-2-methoxy-benzamide], the IC50 in assay [1] (setting [5]) is not above 10 nM; in assay [2], not above 10 nM; in assay [3], 1000 to 10000 nM; in assay [4] (Homo sapiens, OCI-Ly10, 72 h), 100 to 1000 nM.
Turning to `COc1ccccc1C(=O)NCc1ccc(-c2nn(C3CCCC3)c3ncnc(N)c23)cc1F` [Example 66, N-[[4-(4-amino-1-cyclopentyl-pyrazolo[3,4-d]pyrimidin-3-yl)-2-fluoro-phenyl]methyl]-2-methoxy-benzamide], the IC50 is not above 10 nM in assay [1] (setting [5]); 4 nM in assay [1] (setting [6]); not above 10 nM in assay [2]; 100 to 1000 nM in assay [3]; 10 to 100 nM in assay [4] (Homo sapiens, OCI-Ly10, 72 h).
On to `COc1ccccc1C(=O)NCc1ccc(-c2nn(C3CCC4(C3)OCCO4)c3ncnc(N)c23)cc1` (stereo not drawn) [Example 25, N-[[4-[4-amino-1-(1,4-dioxaspiro[4.4]nonan-8-yl)pyrazolo[3,4-d]pyrimidin-3-yl]phenyl]methyl]-2-methoxy-benzamide], for which the IC50 in assay [1] (setting [5]) was not above 10 nM; in assay [2] it was not above 10 nM; in assay [3], 100 to 1000 nM; in assay [4] (Homo sapiens, OCI-Ly10, 72 h), 10 to 100 nM.
For `COc1ccccc1C(=O)NCc1ccc(-c2nn(C(C)(C)C)c3ncnc(N)c23)cc1` [Example 51, N-[[4-(4-amino-1-tert-butyl-pyrazolo[3,4-d]pyrimidin-3-yl)phenyl]methyl]-2-methoxy-benzamide], the IC50 is not above 10 nM in assay [1] (setting [5]); 0.6 nM in assay [1] (setting [6]); not above 10 nM in assay [2]; 10 to 100 nM in assay [3]; 10 to 100 nM in assay [4] (Homo sapiens, OCI-Ly10, 72 h).
For the compound `CC(C)Oc1ccccc1C(=O)NCc1ccc(-c2nn(C3CCCC3)c3ncnc(N)c23)cc1` [Example 8, N-[[4-(4-amino-1-cyclopentyl-pyrazolo[3,4-d]pyrimidin-3-yl)phenyl]methyl]-2-isopropoxy-benzamide], the IC50 in assay [1] (setting [5]) was 10 to 100 nM; in assay [2] it was not above 10 nM; in assay [3], 1000 to 10000 nM; in assay [4] (Homo sapiens, OCI-Ly10, 72 h) it was 1000 to 10000 nM.
On to `COc1ccccc1C(=O)NCc1ccc(-c2nn(C3CCCOC3)c3ncnc(N)c23)cc1` (stereo not drawn) [Example 34, N-[[4-(4-amino-1-tetrahydropyran-3-yl-pyrazolo[3,4-d]pyrimidin-3-yl)phenyl]methyl]-2-methoxy-benzamide], for which the IC50 in assay [1] (setting [5]) was not above 10 nM; in assay [2], not above 10 nM; in assay [3], 1000 to 10000 nM; in assay [4] (Homo sapiens, OCI-Ly10, 72 h), 10 to 100 nM.
Consider `COc1ccccc1C(=O)NCc1ccc(-c2nn(C3CCC(C)C3)c3ncnc(N)c23)cc1` (stereo not drawn) [Example 62, N-[[4-[4-amino-1-(3-methylcyclopentyl)pyrazolo[3,4-d]pyrimidin-3-yl]phenyl]methyl]-2-methoxy-benzamide], for which the IC50 is not above 10 nM in assay [1] (setting [5]); not above 10 nM in assay [2]; 100 to 1000 nM in assay [3]; 10 to 100 nM in assay [4] (Homo sapiens, OCI-Ly10, 72 h).
Regarding `COc1ccccc1C(=O)NCc1ccc(-c2nn([C@@H]3C=C[C@@H](O)C3)c3ncnc(N)c23)cc1` [Example 50, N-[[4-[4-amino-1-[(1S,4S)-4-hydroxycyclopent-2-en-1-yl]pyrazolo[3,4-d]pyrimidin-3-yl]phenyl]methyl]-2-methoxy-benzamide], the IC50 in assay [1] (setting [5]) was not above 10 nM; in assay [2] it was not above 10 nM; in assay [3], 100 to 1000 nM; in assay [4] (Homo sapiens, OCI-Ly10, 72 h), 100 to 1000 nM.
On to `COc1ccc(F)cc1C(=O)NCc1ccc(-c2nn([C@H]3C=C[C@H](O)C3)c3ncnc(N)c23)cc1` [Example 53, N-[[4-[4-Amino-1-[(1R,4R)-4-hydroxycyclopent-2-en-1-yl]pyrazolo[3,4-d]pyrimidin-3-yl]phenyl]methyl]-5-fluoro-2-methoxy-benzamide], for which the IC50 in assay [1] (setting [5]) was 10 to 100 nM; in assay [2] it was not above 10 nM; in assay [3], 1000 to 10000 nM; in assay [4] (Homo sapiens, OCI-Ly10, 72 h), 1000 to 10000 nM.
For the compound `COc1ccc(F)cc1C(=O)NCc1ccc(-c2nn(C3CCC(C)(O)CC3)c3ncnc(N)c23)cc1` (single isomer, unassigned) [Example 95, N-[[4-[4-Amino-1-(4-hydroxy-4-methyl-cyclohexyl)pyrazolo[3,4-d]pyrimidin-3-yl]phenyl]methyl]-5-fluoro-2-methoxy-benzamide], the IC50 is not above 10 nM in assay [1] (setting [5]), not above 10 nM in assay [2], 100 to 1000 nM in assay [3] and 10 to 100 nM in assay [4].
For `COc1ccccc1C(=O)NCc1ccc(-c2nn(CC(C)O)c3ncnc(N)c23)cc1` (stereo not drawn) [Example 74, N-[[4-[4-amino-1-(2-hydroxypropyl)pyrazolo[3,4-d]pyrimidin-3-yl]phenyl]methyl]-2-methoxy-benzamide], the IC50 in assay [1] (setting [5]) was in the range of 10 to 100 nM; in assay [2], 10 to 100 nM; in assay [3] it was 1000 to 10000 nM; in assay [4] (Homo sapiens, OCI-Ly10, 72 h), 100 to 1000 nM.
